Laboratory results: US11051515B2, “3-acyl-benzamides and their use as herbicides” (Bayer Aktiengesellschaft, priority 2017, dated 2021)

How the values were obtained:
MATIN [1] = experiment: Post-emergence action against MATIN; type: in vivo, Matricaria inodora; conditions: post-emergence, dosage 80 g/ha, visual assessment about 3 weeks after treatment vs untreated controls
Method in brief: (§1)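 Post-emergence foliar spray on greenhouse plants at the one-leaf stage, using wettable-powder or emulsion-concentrate formulations in water (600 to […], plus 0.2% wetting agent). Damage scored by eye roughly 3 weeks later against untreated plants: 0% = like control, 100% = dead.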

AMARE [2] = experiment: Pre-emergence action against AMARE; type: in vivo, Amaranthus retroflexus; conditions: pre-emergence, dosage 320 g/ha, scored visually after 3 weeks vs untreated controls
Method in brief: (§2)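 Seeds sown in sandy loam in wood-fiber pots and covered with soil. Greenhouse growth; visual damage scored after 3 weeks versus untreated controls (100% = dead, 0% = like control).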

CYPES [3] = experiment: Post-emergence action against CYPES; type: in vivo, Cyperus esculentus; conditions: post-emergence, dosage 80 g/ha, visual assessment about 3 weeks after treatment vs untreated controls
Method in brief: as §1

ABUTH [4] = experiment: Pre-emergence action against ABUTH; type: in vivo, Abutilon theophrasti; conditions: pre-emergence, dosage 320 g/ha, scored visually after 3 weeks vs untreated controls
Method in brief: as §2

MATIN [5] = experiment: Pre-emergence action against MATIN; type: in vivo, Matricaria inodora; conditions: Dosage 320 g/ha, pre-emergence
Method in brief: as §2

STEME [6] = experiment: Post-emergence action against STEME; type: in vivo, Stellaria media; conditions: post-emergence, dosage 80 g/ha
Method in brief: as §1

AMARE [7] = experiment: Post-emergence action against AMARE; type: in vivo, Amaranthus retroflexus; conditions: post-emergence, dosage 80 g/ha, visual assessment about 3 weeks after treatment vs untreated controls
Method in brief: as §1

SETVI [8] = experiment: Pre-emergence action against SETVI; type: in vivo, Setaria viridis; conditions: pre-emergence, dosage 320 g/ha, scored visually after 3 weeks vs untreated controls
Method in brief: as §2

CYPES [9] = experiment: Pre-emergence action against CYPES; type: in vivo, Cyperus esculentus; conditions: pre-emergence, dosage 320 g/ha, scored visually after 3 weeks vs untreated controls
Method in brief: as §2

VERPE [10] = experiment: Pre-emergence action against VERPE; type: in vivo, Veronica persica; conditions: Dosage 320 g/ha, pre-emergence
Method in brief: as §2

SETVI [11] = experiment: Post-emergence action against SETVI; type: in vivo, Setaria viridis; conditions: post-emergence, dosage 80 g/ha, visual assessment about 3 weeks after treatment vs untreated controls
Method in brief: as §1

ECHCG [12] = experiment: Pre-emergence action against ECHCG; type: in vivo, Echinochloa crus-galli; conditions: pre-emergence, dosage 320 g/ha, scored visually after 3 weeks vs untreated controls
Method in brief: as §2

POLCO [13] = experiment: Post-emergence action against POLCO; type: in vivo, Polygonum convolvulus; conditions: post-emergence, dosage 80 g/ha
Method in brief: as §1

POLCO [14] = experiment: Pre-emergence action against POLCO; type: in vivo, Polygonum convolvulus; conditions: Dosage 320 g/ha, pre-emergence
Method in brief: as §2

ABUTH [15] = experiment: Post-emergence action against ABUTH; type: in vivo, Abutilon theophrasti; conditions: post-emergence, dosage 80 g/ha, visual assessment about 3 weeks after treatment vs untreated controls
Method in brief: as §1

AVEFA [16] = experiment: Pre-emergence action against AVEFA; type: in vivo, Avena fatua; conditions: dosage 320 g/ha, scored visually after 3 weeks vs untreated controls
Method in brief: as §2

ALOMY = experiment: Pre-emergence action against ALOMY; type: in vivo, Alopecurus myosuroides; conditions: dosage 320 g/ha, pre-emergence, scored visually after 3 weeks vs untreated controls, 100% = plants have died, 0% = like control plants
Method in brief: as §2

PHBPU [17] = experiment: Pre-emergence action against PHBPU; type: in vivo, Pharbitis purpurea; conditions: Dosage 320 g/ha, pre-emergence
Method in brief: as §2

VIOTR [18] = experiment: Post-emergence action against VIOTR; type: in vivo, Viola tricolor; conditions: post-emergence, dosage 80 g/ha
Method in brief: as §1

HORMU = experiment: Pre-emergence action against HORMU; type: in vivo, Hordeum murinum; conditions: Dosage 320 g/ha
Description: (§3) Seeds of monocotyledonous and dicotyledonous weed plants and crop plants are laid out in sandy loam soil in wood-fiber pots and covered with soil. The compounds of the invention, formulated in the form of wettable powders (WP) or as emulsion concentrates (EC), are then applied to the surface of the covering soil in the form of an aqueous suspension or emulsion at a water application rate equating to […], with addition of 0.2% wetting agent. After the treatment, the pots are placed in a greenhouse and kept under good growth conditions for the trial plants. The damage to the test plants is scored visually after a test period of 3 weeks by comparison with untreated controls (herbicidal activity in percent (%): 100% activity=the plants have died, 0% activity=like control plants).

VIOTR [19] = experiment: Pre-emergence action against VIOTR; type: in vivo, Viola tricolor; conditions: Dosage 320 g/ha, pre-emergence
Method in brief: as §2

STEME [20] = experiment: Pre-emergence action against STEME; type: in vivo, Stellaria media; conditions: Dosage 320 g/ha, pre-emergence
Method in brief: as §2

PHBPU [21] = experiment: Post-emergence action against PHBPU; type: in vivo, Pharbitis purpurea; conditions: post-emergence, dosage 80 g/ha
Method in brief: as §1

LOLRI = experiment: Pre-emergence action against LOLRI; type: in vivo, Lolium rigidum; conditions: dosage 320 g/ha, scored visually after 3 weeks vs untreated controls
Description: as §3

ECHCG [22] = experiment: Post-emergence action against ECHCG; type: in vivo, Echinochloa crus-galli; conditions: post-emergence, dosage 80 g/ha, visual assessment about 3 weeks after treatment vs untreated controls
Method in brief: as §1

VERPE [23] = experiment: Post-emergence action against VERPE; type: in vivo, Veronica persica; conditions: Veronica persica, 504 h, dosage 80 g/ha
Method in brief: as §1

AVEFA [24] = experiment: Post-emergence action against AVEFA; type: in vivo, Avena fatua; conditions: post-emergence, dosage 80 g/ha, visual assessment about 3 weeks after treatment vs untreated controls
Method in brief: as §1

SMILES: CCn1nnnc1NC(=O)c1ccc(C(F)F)c(C(C)=O)c1Cl [2-164]
- Post-emergence action against MATIN (herbicidal action in percent) (MATIN [1]): 100%
- Pre-emergence action against AMARE (herbicidal activity) (AMARE [2]): 100%
- Post-emergence action against CYPES (herbicidal action in percent) (CYPES [3]): 90%
- Pre-emergence action against ABUTH (herbicidal activity) (ABUTH [4]): 100%
- Pre-emergence action against MATIN (MATIN [5]): 100%
- Post-emergence action against STEME (STEME [6]): 100
- Post-emergence action against AMARE (herbicidal action in percent) (AMARE [7]): 100%
- SETVI (Table B8, pre-emergence herbicidal activity) (SETVI [8]): 100%
- Pre-emergence action against CYPES (herbicidal activity) (CYPES [9]): 100%
- Pre-emergence action against VERPE (VERPE [10]): 100%
- Post-emergence action against SETVI (herbicidal action in percent) (SETVI [11]): 100%
- Pre-emergence action against ECHCG (herbicidal activity) (ECHCG [12]): 100%
- Post-emergence action against POLCO (POLCO [13]): 80
- Pre-emergence action against POLCO (POLCO [14]): 100%
- Post-emergence action against ABUTH (herbicidal action in percent) (ABUTH [15]): 100%
- Pre-emergence action against AVEFA (herbicidal activity) (AVEFA [16]): 90%
- Pre-emergence action against ALOMY (herbicidal activity in percent) (ALOMY): 100%
- Pre-emergence action against PHBPU (PHBPU [17]): 90%
- Post-emergence action against VIOTR (VIOTR [18]): 100
- Pre-emergence action against HORMU (HORMU): 80%
- Pre-emergence action against VIOTR (VIOTR [19]): 100%
- Pre-emergence action against STEME (STEME [20]): 100%
- Post-emergence action against PHBPU (PHBPU [21]): 100
- Pre-emergence action against LOLRI (herbicidal activity) (LOLRI): 80%
- Post-emergence action against ECHCG (herbicidal action in percent) (ECHCG [22]): 100%

SMILES: CCCC(=O)c1c(C(F)(F)F)ccc(C(=O)Nc2nnnn2C)c1Cl [1-139]
- pest or weed control at 80 g/ha (MATIN [1]; Tripleurospermum inodorum, 504 h, read-out: Post-emergence action against MATIN (herbicidal action in percent)): 90%
- pest or weed control at 320 g/ha (AMARE [2]; Amaranthus retroflexus, 504 h, read-out: Pre-emergence action against AMARE (herbicidal activity)): 100%
- pest or weed control at 320 g/ha (ABUTH [4]; Abutilon theophrasti, 504 h, read-out: Pre-emergence action against ABUTH (herbicidal activity)): 100%
- pest or weed control at 320 g/ha (MATIN [5]; Tripleurospermum inodorum, 504 h): 100%
- pest or weed control at 80 g/ha (STEME [6]; Stellaria media, 504 h): 100%
- pest or weed control at 80 g/ha (AMARE [7]; Amaranthus retroflexus, 504 h, read-out: Post-emergence action against AMARE (herbicidal action in percent)): 100%
- pest or weed control at 320 g/ha (SETVI [8]; Setaria viridis, 504 h, read-out: SETVI (Table B8, pre-emergence herbicidal activity)): 100%
- pest or weed control at 320 g/ha (CYPES [9]; Cyperus esculentus, 504 h, read-out: Pre-emergence action against CYPES (herbicidal activity)): 90%
- pest or weed control at 320 g/ha (VERPE [10]; Veronica persica, 504 h): 100%
- pest or weed control at 320 g/ha (ECHCG [12]; Echinochloa crus-galli, 504 h, read-out: Pre-emergence action against ECHCG (herbicidal activity)): 100%
- pest or weed control at 80 g/ha (VERPE [23]): 80%
- pest or weed control at 80 g/ha (ABUTH [15]; Abutilon theophrasti, 504 h, read-out: Post-emergence action against ABUTH (herbicidal action in percent)): 90%
- pest or weed control at 320 g/ha (AVEFA [16]; Avena fatua, 504 h, read-out: Pre-emergence action against AVEFA (herbicidal activity)): 100%
- pest or weed control at 320 g/ha (ALOMY; Alopecurus myosuroides, 504 h, read-out: Pre-emergence action against ALOMY (herbicidal activity in percent)): 100%
- pest or weed control at 320 g/ha (PHBPU [17]; Ipomoea purpurea, 504 h): 100%
- pest or weed control at 80 g/ha (VIOTR [18]; Viola tricolor, 504 h): 100%
- pest or weed control at 320 g/ha (HORMU; Hordeum murinum, 504 h): 90%
- pest or weed control at 320 g/ha (VIOTR [19]; Viola tricolor, 504 h): 100%
- pest or weed control at 320 g/ha (STEME [20]; Stellaria media, 504 h): 100%
- pest or weed control at 80 g/ha (PHBPU [21]; Ipomoea purpurea, 504 h): 100%
- pest or weed control at 320 g/ha (LOLRI; Lolium rigidum, 504 h, read-out: Pre-emergence action against LOLRI (herbicidal activity)): 100%
- pest or weed control at 80 g/ha (ECHCG [22]; Echinochloa crus-galli, 504 h, read-out: Post-emergence action against ECHCG (herbicidal action in percent)): 90%

SMILES: Cn1nnnc1NC(=O)c1ccc(C(F)(F)F)c(C(=O)C2(C)CC2)c1Cl [1-147]
- Post-emergence action against MATIN (herbicidal action in percent) (MATIN [1]): 90%
- Pre-emergence action against AMARE (herbicidal activity) (AMARE [2]): 100%
- Pre-emergence action against ABUTH (herbicidal activity) (ABUTH [4]): 100%
- Pre-emergence action against MATIN (MATIN [5]): 100%
- Post-emergence action against STEME (STEME [6]): 80
- Post-emergence action against AMARE (herbicidal action in percent) (AMARE [7]): 100%
- SETVI (Table B8, pre-emergence herbicidal activity) (SETVI [8]): 100%
- Pre-emergence action against CYPES (herbicidal activity) (CYPES [9]): 100%
- Pre-emergence action against VERPE (VERPE [10]): 100%
- Post-emergence action against SETVI (herbicidal action in percent) (SETVI [11]): 100%
- Pre-emergence action against ECHCG (herbicidal activity) (ECHCG [12]): 100%
- Post-emergence action against ABUTH (herbicidal action in percent) (ABUTH [15]): 100%
- Pre-emergence action against AVEFA (herbicidal activity) (AVEFA [16]): 90%
- Pre-emergence action against ALOMY (herbicidal activity in percent) (ALOMY): 100%
- Pre-emergence action against HORMU (HORMU): 90%
- Pre-emergence action against VIOTR (VIOTR [19]): 100%
- Post-emergence action against AVEFA (herbicidal action in percent) (AVEFA [24]): 100%
- Pre-emergence action against STEME (STEME [20]): 100%
- Post-emergence action against PHBPU (PHBPU [21]): 80
- Pre-emergence action against LOLRI (herbicidal activity) (LOLRI): 90%
- Post-emergence action against ECHCG (herbicidal action in percent) (ECHCG [22]): 100%
